PubChem BioAssay (NCI)
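A five-concentration, 48-hour dose response in 96-well plates underlies each endpoint, interpolated linearly between surrounding concentrations. Definition used: TGI = concentration required for complete inhibition of growth.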

Legend:
Test in all cases: NCI-60 cell line screen, 48 h
SF-295 CNS = test system: SF-295 CNS
HOP-62 NSCLC = test system: HOP-62 NSCLC
NCI-H23 lung = test system: NCI-H23 lung
NCI-H460 lung = test system: NCI-H460 lung
U251 CNS = test system: U251 CNS
MALME-3M melanoma = test system: MALME-3M melanoma
KM12 colon = test system: KM12 colon
UACC-257 melanoma = test system: UACC-257 melanoma
HCC-2998 colon = test system: HCC-2998 colon
SF-268 CNS = test system: SF-268 CNS
SW-620 colon = test system: SW-620 colon
A498 renal = test system: A498 renal
MDA-MB-435 = test system: MDA-MB-435
HL-60(TB) leukemia = test system: HL-60(TB) leukemia
TK-10 renal = test system: TK-10 renal
PC-3 prostate = test system: PC-3 prostate
K-562 leukemia = test system: K-562 leukemia
OVCAR-8 ovarian = test system: OVCAR-8 ovarian
HS 578T breast = test system: HS 578T breast
SN12C renal = test system: SN12C renal
T-47D breast = test system: T-47D breast
RXF 393 renal = test system: RXF 393 renal
CCRF-CEM leukemia = test system: CCRF-CEM leukemia
MDA-MB-231 breast = test system: MDA-MB-231 breast
HCT-116 colon = test system: HCT-116 colon
SK-MEL-2 melanoma = test system: SK-MEL-2 melanoma
786-0 renal = test system: 786-0 renal
A549 NSCLC = test system: A549 NSCLC
HT29 colon = test system: HT29 colon
IGROV1 ovarian = test system: IGROV1 ovarian
DU-145 prostate = test system: DU-145 prostate
SNB-75 CNS = test system: SNB-75 CNS
SK-OV-3 ovarian = test system: SK-OV-3 ovarian
SK-MEL-5 melanoma = test system: SK-MEL-5 melanoma
LOX IMVI melanoma = test system: LOX IMVI melanoma
RPMI-8226 leukemia = test system: RPMI-8226 leukemia
SK-MEL-28 melanoma = test system: SK-MEL-28 melanoma
NCI-H226 lung = test system: NCI-H226 lung
SF-539 CNS = test system: SF-539 CNS
BT-549 breast = test system: BT-549 breast
OVCAR-5 ovarian = test system: OVCAR-5 ovarian
SNB-19 CNS = test system: SNB-19 CNS
EKVX NSCLC = test system: EKVX NSCLC
HCT-15 colon = test system: HCT-15 colon
ACHN renal = test system: ACHN renal
M14 melanoma = test system: M14 melanoma
UACC-62 melanoma = test system: UACC-62 melanoma
HOP-92 NSCLC = test system: HOP-92 NSCLC
MOLT-4 leukemia = test system: MOLT-4 leukemia
MCF7 breast = test system: MCF7 breast
SR leukemia = test system: SR leukemia
OVCAR-3 ovarian = test system: OVCAR-3 ovarian
OVCAR-4 ovarian = test system: OVCAR-4 ovarian
COLO 205 colon = test system: COLO 205 colon
NCI/ADR-RES ovarian = test system: NCI/ADR-RES ovarian
CAKI-1 renal = test system: CAKI-1 renal
UO-31 renal = test system: UO-31 renal
NCI-H522 lung = test system: NCI-H522 lung

Work on `O=C1C(NCCF)=C(Cl)C(=O)c2ncccc21` yielded a TGI (SF-295 CNS) of 3.02 µM, a TGI (HOP-62 NSCLC) of 3.47 µM and a TGI (NCI-H23 lung) of 2.8 µM. For the same compound, the TGI (NCI-H460 lung) was 1.68 µM, the TGI (U251 CNS) was 2 µM and the TGI (MALME-3M melanoma) was 1.2 µM. It also gave a TGI (KM12 colon) of 2.93 µM, a TGI (UACC-257 melanoma) of 3.23 µM and a TGI (HCC-2998 colon) of 2.5 µM. For the same compound, the TGI (SF-268 CNS) was 4.17 µM, the TGI (SW-620 colon) was 2.15 µM and the TGI (A498 renal) was 3.17 µM. For the same compound, the TGI (MDA-MB-435) was 0.353 µM, the TGI (HL-60(TB) leukemia) was 0.854 µM and the TGI (TK-10 renal) was 3.23 µM. It also gave a TGI (PC-3 prostate) of 3.45 µM, a TGI (K-562 leukemia) of 0.575 µM and a TGI (OVCAR-8 ovarian) of 3.27 µM. It also gave a TGI (HS 578T breast) of 4.01 µM, a TGI (SN12C renal) of 2.2 µM and a TGI (T-47D breast) of 5.04 µM. For the same compound, the TGI (RXF 393 renal) was 2.01 µM, the TGI (CCRF-CEM leukemia) was 0.695 µM and the TGI (MDA-MB-231 breast) was 5.19 µM. For the same compound, the TGI (HCT-116 colon) was 2.4 µM, the TGI (SK-MEL-2 melanoma) was 0.794 µM and the TGI (786-0 renal) was 2.51 µM. The TGI (A549 NSCLC) was 3.79 µM, the TGI (HT29 colon) was 6.15 µM and the TGI (IGROV1 ovarian) was 3.28 µM. The TGI (DU-145 prostate) was 2.33 µM, the TGI (SNB-75 CNS) was 1.93 µM and the TGI (SK-OV-3 ovarian) was 3.28 µM. It also gave a TGI (SK-MEL-5 melanoma) of 0.343 µM, a TGI (LOX IMVI melanoma) of 1.61 µM and a TGI (RPMI-8226 leukemia) of 1.78 µM. For the same compound, the TGI (SK-MEL-28 melanoma) was 2 µM, the TGI (NCI-H226 lung) was 3.66 µM and the TGI (SF-539 CNS) was 2.34 µM. The TGI (BT-549 breast) was 2.86 µM, the TGI (OVCAR-5 ovarian) was 3.46 µM and the TGI (SNB-19 CNS) was 2.68 µM. It also gave a TGI (EKVX NSCLC) of 3.47 µM, a TGI (HCT-15 colon) of 2.08 µM and a TGI (ACHN renal) of 3.62 µM. For the same compound, the TGI (M14 melanoma) was 2.28 µM, the TGI (UACC-62 melanoma) was 1.25 µM and the TGI (HOP-92 NSCLC) was 3.67 µM. The TGI (MOLT-4 leukemia) was 3.27 µM, the TGI (MCF7 breast) was 2.28 µM and the TGI (SR leukemia) was 5.35 µM.

Work on `O=C(CC(=O)N1N=C(N2c3ccccc3Sc3ccccc32)CC1c1ccccc1)Nc1ccccc1Cl` (centres undefined) yielded a TGI (SF-295 CNS) greater than 100 µM, a TGI (OVCAR-3 ovarian) greater than 100 µM and a TGI (HOP-62 NSCLC) greater than 100 µM. The TGI (NCI-H23 lung) was greater than 100 µM, the TGI (NCI-H460 lung) was greater than 100 µM and the TGI (U251 CNS) was greater than 100 µM. The TGI (KM12 colon) was greater than 100 µM, the TGI (UACC-257 melanoma) was greater than 100 µM and the TGI (HCC-2998 colon) was greater than 100 µM. It also gave a TGI (SF-268 CNS) greater than 100 µM, a TGI (SW-620 colon) greater than 100 µM and a TGI (A498 renal) greater than 100 µM. For the same compound, the TGI (MDA-MB-435) was greater than 100 µM, the TGI (HL-60(TB) leukemia) was greater than 100 µM and the TGI (TK-10 renal) was greater than 100 µM. For the same compound, the TGI (PC-3 prostate) was greater than 100 µM, the TGI (K-562 leukemia) was greater than 100 µM and the TGI (OVCAR-8 ovarian) was greater than 100 µM. The TGI (HS 578T breast) was greater than 100 µM, the TGI (SN12C renal) was greater than 100 µM and the TGI (T-47D breast) was greater than 100 µM. The TGI (RXF 393 renal) was greater than 100 µM, the TGI (CCRF-CEM leukemia) was greater than 100 µM and the TGI (MDA-MB-231 breast) was greater than 100 µM. It also gave a TGI (OVCAR-4 ovarian) greater than 100 µM, a TGI (HCT-116 colon) greater than 100 µM and a TGI (SK-MEL-2 melanoma) greater than 100 µM. The TGI (COLO 205 colon) was greater than 100 µM, the TGI (786-0 renal) was greater than 100 µM and the TGI (A549 NSCLC) was greater than 100 µM. It also gave a TGI (HT29 colon) greater than 100 µM, a TGI (IGROV1 ovarian) greater than 100 µM and a TGI (DU-145 prostate) greater than 100 µM. For the same compound, the TGI (SNB-75 CNS) was greater than 100 µM, the TGI (SK-MEL-5 melanoma) was greater than 100 µM and the TGI (NCI/ADR-RES ovarian) was greater than 100 µM. It also gave a TGI (RPMI-8226 leukemia) greater than 100 µM, a TGI (SK-MEL-28 melanoma) greater than 100 µM and a TGI (NCI-H226 lung) greater than 100 µM. It also gave a TGI (SF-539 CNS) greater than 100 µM, a TGI (BT-549 breast) greater than 100 µM and a TGI (OVCAR-5 ovarian) greater than 100 µM. It also gave a TGI (SNB-19 CNS) greater than 100 µM, a TGI (EKVX NSCLC) greater than 100 µM and a TGI (CAKI-1 renal) greater than 100 µM. For the same compound, the TGI (HCT-15 colon) was greater than 100 µM, the TGI (ACHN renal) was greater than 100 µM and the TGI (M14 melanoma) was greater than 100 µM. For the same compound, the TGI (UACC-62 melanoma) was greater than 100 µM, the TGI (HOP-92 NSCLC) was greater than 100 µM and the TGI (MOLT-4 leukemia) was greater than 100 µM. It also gave a TGI (UO-31 renal) greater than 100 µM and a TGI (NCI-H522 lung) greater than 100 µM.
